According to US11078184B2, “Dexrabeprazole sodium compound and pharmaceutical composition thereof” (JIANGSU AOSAIKANG PHARMACEUTICAL CO., LTD., priority 2017, dated 2021):

Key:
[1] = High temperature / grinding test, change of crystal form by XRPD; assay type: physicochemical; conditions: high temperature, XRPD; sodium salt
From the text: Crystal forms A and C of dexrabeprazole sodium were placed under different conditions as listed in Table 5 below, and sampled for XRPD detection to investigate the change of crystal forms.

[2] = Test of suspension equilibrium (XRPD); conditions: suspension in acetonitrile
Experimental: XRPD test (FIGS. 10 & 12-14, Modern Analysis Center, Nanjing University): Instrument model: Thermo Co., Ltd., X'TRA Type X Diffractometer, target: Cu (40 kV, 40 mA), scanning range: 2°-40° (2θvalue), scanning step length: 0.02, scanning speed: 5
The mixture was stirred, together with 10 ml of a solvent at 35° C. and under nitrogen atmosphere, and then sampled for XRPD detection.

[3] = Test of influence factors (stability: appearance and relevant materials by HPLC); assay type: physicochemical
Experimental: Chromatographic conditions of relevant materials: Chromatographic column: charged with octadecylsilane bonded silica as a filler (Agilent ZORBAX Extend C18, 250×4.6 mm, […]); Mobile phase A: 0.025 mol/L of phosphate solution (the pH of 0.025 mol/L of dipotassium phosphate solution was adjusted to 7.2 with phosphoric acid)-acetonitrile (95:5); Mobile phase B: methanol; Mobile phase C: acetonitrile; A linear gradient elution is carried out in accordance with the following table. Detection wavelength: 280 nm, 220 nm (for impurity H) Flowrate: 1.0 ml/min Column temperature: 25° C. Sample size: 5 μl Diluent: the pH of 0.1 mol/L of dipotassium phosphate solution was adjusted to 11.3 with 2 mol/L potassium hydroxide solution-methanol (45:55). Crystal forms A, B, and C (each 100 mg) were placed under different conditions, and sampled at Days 0, 10, 20, and 30 for detecting their characters and relevant materials, respectively.

[4] = Determination of hygroscopic moisture; assay type: physicochemical; conditions: 25° C. thermostatic drier over saturated ammonium chloride solution, sodium salt
Experimental: Determination of hygroscopic moisture: 25±+1° C. Thermostatic Drier (with a saturated solution of ammonium chloride being placed at bottom of the drier).

[5] = High humidity, RH75 ± 5%, Day 0, sodium salt
[6] = High humidity, RH75 ± 5%, Day 10, sodium salt
[7] = High humidity, RH75 ± 5%, Day 20, sodium salt
[8] = High humidity, RH75 ± 5%, Day 30, sodium salt
[9] = High temperature, 40° C., Day 0, sodium salt
[10] = High temperature, 40° C., Day 10, sodium salt
[11] = High temperature, 40° C., Day 20, sodium salt
[12] = High temperature, 40° C., Day 30, sodium salt
[13] = Light exposure, 4500 ± 500 Lx, Day 0, sodium salt
[14] = Light exposure, 4500 ± 500 Lx, Day 10, sodium salt
[15] = Light exposure, 4500 ± 500 Lx, Day 20, sodium salt
[16] = Light exposure, 4500 ± 500 Lx, Day 30, sodium salt

SMILES: COCCCOc1ccnc(C[S@@+]([O-])c2nc3ccccc3[n-]2)c1C.[Na+] [Crystal form C, R-(+)-2-{[4-(3-methoxypropoxy)-3-methylpyrid-2-yl]methylsulfinyl}-1H-benzimidazole sodium salt]
- Stability of the crystal form at a high temperature [1]: keeps stable at a high temperature without crystal transformation
- Stability of the crystal form in suspension equilibrium [2]: better stability than amorphous form and crystal form A
- Appearance character ([3]; High humidity, RH75 ± 5%, Day 0): Off-white
- Relevant materials: Maximum individual impurity (%) [3, 5]: 0.032%
- Relevant materials: Total impurity (%) [3, 5]: 0.085%
- Appearance character [3, 6]: Off-white
- Relevant materials: Maximum individual impurity (%) [3, 6]: 0.027%
- Relevant materials: Total impurity (%) [3, 6]: 0.094%
- Appearance character [3, 7]: Off-white
- Relevant materials: Maximum individual impurity (%) [3, 7]: 0.015%
- Relevant materials: Total impurity (%) [3, 7]: 0.166%
- Appearance character [3, 8]: Off-white
- Relevant materials: Maximum individual impurity (%) [3, 8]: 0.292%
- Relevant materials: Total impurity (%) [3, 8]: 0.491%
- Appearance character ([3]; High temperature, 40° C., Day 0): Off-white
- Relevant materials: Maximum individual impurity (%) [3, 9]: 0.032%
- Relevant materials: Total impurity (%) [3, 9]: 0.085%
- Appearance character ([3]; High temperature, 40° C., Day 10): Off-white
- Relevant materials: Maximum individual impurity (%) [3, 10]: 0.030%
- Relevant materials: Total impurity (%) [3, 10]: 0.093%
- Appearance character ([3]; High temperature, 40° C., Day 20): Off-white
- Relevant materials: Maximum individual impurity (%) [3, 11]: 0.028%
- Relevant materials: Total impurity (%) [3, 11]: 0.117%
- Appearance character ([3]; High temperature, 40° C., Day 30): Off-white
- Relevant materials: Maximum individual impurity (%) [3, 12]: 0.024%
- Relevant materials: Total impurity (%) [3, 12]: 0.136%
- Appearance character ([3]; Light exposure, 4500 ± 500 Lx, Day 0): Off-white
- Relevant materials: Maximum individual impurity (%) [3, 13]: 0.032%
- Relevant materials: Total impurity (%) [3, 13]: 0.085%
- Appearance character ([3]; Light exposure, 4500 ± 500 Lx, Day 10): Off-white
- Relevant materials: Maximum individual impurity (%) [3, 14]: 0.088%
- Relevant materials: Total impurity (%) [3, 14]: 0.112%
- Appearance character ([3]; Light exposure, 4500 ± 500 Lx, Day 20): Off-white
- Relevant materials: Maximum individual impurity (%) [3, 15]: 0.094%
- Relevant materials: Total impurity (%) [3, 15]: 0.245%
- Appearance character ([3]; Light exposure, 4500 ± 500 Lx, Day 30): Off-white
- Relevant materials: Maximum individual impurity (%) [3, 16]: 0.113%
- Relevant materials: Total impurity (%) [3, 16]: 0.344%
- Stability compared with crystal form A ([3]; high temperature and high humidity): better than that of crystal form A
- Stability compared with crystal form A ([3]; light exposure): comparable to that of crystal form A
- Hygroscopic moisture (%) ([4]; 0 h): 0.11%
- Hygroscopic moisture (%) ([4]; 24 h): 0.15%
- Hygroscopic moisture (%) ([4]; 48 h): 0.18%
